Data published in patent US20040091528A1, “Soluble drug extended release system” (Yamanouchi Pharma Technologies, Inc., priority 2002, published 2004).
Counter-ions that a name gives are not always drawn. Like-named read-outs stand apart in the source and are kept apart here.

Legend:
[1] = In vitro dissolution (drug release) from 400 mg matrix tablets, USP apparatus II, SGF or SIF; type: physicochemical; parameters: T50 (time during which 50% of drug has been released from matrix): unit not given here; conditions: for T50 (time during which 50% of drug has been released from matrix): 10 wt. % drug, 400 mg PAA/PEO (1:1.5) tablet, modified SIF; for T50 values in SIF, PAA/PEO: PAA/PEO (1:1.5) formulation, 10% of active; for T10 / T50: 1:1.5 PAA/PEO excipient mixture; for T50 values in SIF, PAA/PEO / T10 / T50 in SIF / T50: SIF; for Comments (interaction with PAA): Table 2; for T50 in SGF: modified SGF
Method: Several different formulations with different drugs were manufactured. Drugs were manually mixed with the excipients in a mortar and compressed into 400 mg tablets using Carver press or Oil press with 1000 lb applied force. Flat face 11 mm round tooling was used.
In vitro drug release was measured by in vitro dissolution experiments. […] Drug release was evaluated with either Simulated Gastric Fluid (SGF), pH=1.2 or Simulated Intestinal Fluid (SIF), pH=7.5, both prepared according to USP without enzyme added. Tablet sinkers were applied in all experiments. At predetermined time intervals, a sample was withdrawn from the vessel and assayed using a UV-VIS spectrophotometer at a wavelength of 240 nm.
The release behavior of a large group of basic highly soluble drugs (10 wt. % of drug ) from a directly compressed matrix tablet using 1:1.5 polyacrylic acid/polyethylene oxide (PAA/PEO) mix as excipient was studied under modified Simulated Intestinal Fluid (SIF) conditions.

[2] = as above; type: physicochemical; conditions: for T50 values in SIF, PAA/Car: PAA/Carrageenan (1:1) formulation, 25% of active; for T50: negatively charged drugs from negatively charged PAA/PEO matrix
[3] = cited from earlier work
[4] = cited from earlier work; for Log P: Table 1; for LogP: Table 4
[5] = Table 1, model drug characteristics
[6] = Table 2, positively charged drugs

| Molecule | T50 (time during which 50% of drug has been released from matrix) [1] | T50 values in SIF, PAA/PEO [1] | T50 values in SIF, PAA/Car [2] | Solubility [3, 5] | Log P [4] | further results |
| --- | --- | --- | --- | --- | --- | --- |
| CCCCOc1cc(C(=O)OCCN(CC)CC)ccc1N [Benoxinate HCl] | 22 | 22 | 23 | 1000 mg/mL | 4.0 | LogP [4]: 5.2 |
| CC(C)(C)CC(C)(C)c1ccc(OCCOCC[N+](C)(C)Cc2ccccc2)cc1 [Benzethonium Chloride] | – | – | – | – | – | T10 [1]: 25 h; Comments (interaction with PAA) [1]: Forms insoluble |
| C[N+](C)(C)CC(=O)O [Betaine Hydrochloride] | – | – | – | – | – | T50 in SIF ([1]; 1:1.5 PAA/PEO): 22 h; T50 in SGF ([1]; 1:1.5 PAA/PEO): 4 h |
| C[N+](C)(C)CC(=O)O [Betaine] | – | – | – | – | – | T10 [1]: 6 h; T50 [1]: 22 h; Solubility [3, 6]: 650 mg/mL |
| CC(C[N+](C)(C)C)OC(N)=O (centres unmarked) [Bethanechol Chloride] | – | – | – | – | – | T10 [1]: 10 h; T50 [1]: 55 h; T50 in SIF ([1]; 1:1.5 PAA/PEO): 55 h; T50 in SGF ([1]; 1:1.5 PAA/PEO): 24 h; Comments (interaction with PAA) [1]: Forms insoluble |
| CC1OC2(CS1)CN1CCC2CC1 (centres unmarked) [Cevimeline HCl] | 4.5 | – | – | 766 mg/mL | 1.1 | – |
| CN(C)CCCN1c2ccccc2Sc2ccc(Cl)cc21 [Chlorpromazine HCl] | 56 | – | – | 400 mg/mL | – | – |
| COc1ccc([C@@H]2Sc3ccccc3N(CCN(C)C)C(=O)[C@@H]2OC(C)=O)cc1 [Diltiazem HCl] | 18 | 18 | 21 | 800 mg/mL | 3.6 | T50 in SIF ([1]; 1:1.5 PAA/PEO): 18 h; T50 in SGF ([1]; 1:1.5 PAA/PEO): 8 h; LogP [4]: 3.6 |
| CN(C)CCOC(c1ccccc1)c1ccccc1 [Diphenhydramine HCl] | 15 | 15 | 8 | – | – | – |
| CN(C)CCOC(C)(c1ccccc1)c1ccccn1 (centres unmarked) [Doxylamine Succinate] | 23 | 23 | 22 | 1000 mg/mL | 2.5 | LogP [4]: 2.5 |
| CN(C)CCCN1c2ccccc2CCc2ccccc21 [Imipramine HCl] | 58 | – | – | 500 mg/mL | – | – |
| CNS(=O)(=O)CCc1ccc2[nH]cc(C3CCN(C)CC3)c2c1 [Naratriptan HCl] | – | 22 | 25 | – | – | LogP [4]: 1.8 |
| CN[C@@H](C)[C@@H](O)c1ccccc1 [Pseudoephedrine HCl] | 4 | – | – | – | 1.0 | – |
| Cc1ncc(CO)c(CO)c1O.Cl [Pyridoxine HCl] | 4 | – | – | – | −1.9 | – |
| CNC(=C[N+](=O)[O-])NCCSCc1ccc(CN(C)C)o1 [Ranitidine HCl] | 11 | 11 | 15 | ˜200 mg/ml | 1.3 | LogP [4]: 1.3 |
| CCOc1ccccc1OCCN[C@H](C)Cc1ccc(OC)c(S(N)(=O)=O)c1 [Tamsulosin HCl] | – | 26 | 25 | – | – | LogP [4]: 2.24 |
| Cc1ncc(C[n+]2csc(CCO)c2C)c(N)n1 [Thiamine HCl] | – | 7.5 | 7.5 | – | – | T10 [1]: 1 h; T50 [1]: 7.5 h; Release behaviour (in words) ([1]; permanently positively charged molecules, 1:1.5 PAA/PEO): slightly fast release; Solubility [3, 6]: 1000 mg/mL |
| COc1cccc(C2(O)CCCCC2CN(C)C)c1 (centres unmarked) [Tramadol HCl] | 31 | – | – | >1000 mg/mL | 2.5 | T50 in SIF ([1]; 1:1.5 PAA/PEO): 31 h; T50 in SGF ([1]; 1:1.5 PAA/PEO): 8 h |
| Cc1nnc(SCC2=C(C(=O)[O-])N3C(=O)[C@@H](NC(=O)Cn4cnnn4)[C@H]3SC2)s1.[Na+] [sodium cefazoline] | – | – | – | – | – | T50 [2]: about 5 hours |
| CO[C@@]1(NC(=O)CSCC#N)C(=O)N2C(C(=O)[O-])=C(CSc3nnnn3C)CS[C@@H]21.[Na+] [sodium cefmatazole] | – | – | – | – | – | T50 [2]: about 5 hours |
| Amitriptuline HCl | 57 | – | – | – | – | – |
| Diphenhydramine Citrate | – | – | – | – | – | T50 in SIF ([1]; 1:1.5 PAA/PEO): 25 h; T50 in SGF ([1]; 1:1.5 PAA/PEO): 12 h |
